Patent US9720000B2, “Targeted identification of immunogenic peptides” (The Henry M. Jackson Foundation for the Advancement of …, priority 2005, dated 2017)

Key:
Format in all cases: cell-based
[1] = test system: SKOV-3 tumor cells; experiment: 51Cr-release cytotoxicity (CTX) assay with peptide-stimulated CTL against SKOV-3; conditions: for average specific CTX (% lysis) against SKOV-3: peptide-stimulated CTL from healthy donor PBMC, SKOV-3 (HLA-A3+), n = 2
Method: (§1) T2 HLA-stabilization assays were performed to confirm HLA-A2 binding activity of Her577 by flow cytometry. PBMC from 9 healthy donors were stimulated with Her577 and tested in ^51Cr-release cytotoxicity (CTX) assays against 3 HER2/neu-expressing tumor cell lines.

[2] = test system: MCF-7 tumor cells; experiment: 51Cr-release cytotoxicity (CTX) assay with peptide-stimulated CTL against MCF-7; conditions: for average specific CTX (% lysis) against MCF-7: peptide-stimulated CTL from healthy donor PBMC, MCF-7 (HLA-A2+), n = 5
Method: as §1

[3] = target: T1, HLA-A2 (Homo sapiens, UniProt P04439, D140Y/D185E/D98H/E176V/E277Q/G131W/G231S/I119V/I121R/I166T/I218V/L300P/L318F/N151K/N90K/P208A/P217A/Q86G/Q94H/R138H/R169H/T345S); experiment: T2 HLA-stabilization (peptide-binding) assay by flow cytometry; conditions: peptide incubated with T2 cells (25 μg per FIG. 5)
T1 construct: endogenous in cells; host or cells: T2 cells
Method: FIG. 5 depicts a T2 Peptide-binding assay, in which 25 μg of peptide were incubated with T2 cells, levels of HLA-A2 levels were measured by flow cytometry and are indicated as Mean Fluorescence Intensity units.
as §1

[4] = test system: LNCaP tumor cells; experiment: 51Cr-release cytotoxicity (CTX) assay with peptide-stimulated CTL against LNCaP; conditions: for average specific CTX (% lysis) against LNCaP: peptide-stimulated CTL from healthy donor PBMC, LNCaP (HLA-A2+), n = 2
Method: as §1

[5] = Her577-stimulated CTL, targets pre-treated with Tz at 50 μg/ml for 24 h, P=0.19

Substance	average specific CTX (% lysis) against SKOV-3 [1] [% lysis]	average specific CTX (% lysis) against MCF-7 [2] [% lysis]	mean fluorescence intensity (HLA-A2 level on T2 cells) [3]	average specific CTX (% lysis) against LNCaP [4] [% lysis]	increase in specific CTX versus untreated SKOV-3 [1, 5] [%]	increase in specific CTX versus untreated MCF-7 [2, 5] [%]	increase in specific CTX versus untreated LNCaP [4, 5] [%]
GP2: immunogenic peptide from HER2/neu (IISAVVGIL) [reference compound]	46 ± 5	48 ± 1	682	26 ± 9			
Her577: peptide Her577 (aa; 577-585) within the Ab-binding site of trastuzumab on HER2/neu (FGPEADQCV)	49 ± 28	45 ± 3	1275	30 ± 3	47	16	83
